# Assays:
# [1] = Cumulative incidence of treatment-emergent serum aminotransferase abnormalities in clinical trials; format: in vivo, human
# Source text: The ambrisentan clinical development program included placebo-controlled and non-placebo-controlled studies. One Phase 2 study (AMB-220) and two Phase 3 studies (AMB-320 and AMB-321) were completed at the time of the NDA submission. Three ongoing studies (AMB-220-E, AMB-222, and AMB-320/321-E) provided additional data in both the original NDA and the 4-month safety update, and data from one additional ongoing study (AMB-323) were included in the 4-month safety update.
# The cumulative incidence of aminotransferase elevations by severity, summarized as a percentage of the cumulative number of subjects who received ambrisentan in clinical trials, is provided in Table 1. The cumulative incidence of aminotransferase elevations>3×ULN (upper limit of the normal range) accompanied by total bilirubin>2×ULN was 0.3% (2 subjects, both with alternative causes for the liver function test (LFT) abnormalities); the associated mean exposure to ambrisentan was 112.5 weeks (maximum, 341.0 weeks). In comparison, during the 12-week placebo controlled trials, 1 patient (1/132, 0.7%) receiving placebo had elevated aminotransferases (both alanine transaminase (ALT) and aspartate transaminase (AST) were >5×ULN) along with elevated total bilirubin (>2×ULN).
# [2] = system: patients with PAH (WHO Group 1); assay: ARIES-1 12-week placebo-controlled study; format: in vivo, human; settings: for Mean change from baseline in 6-minute walk distance / Placebo-adjusted mean change from baseline in 6-minute walk distance / Placebo-adjusted median change from baseline in 6-minute walk distance: 12 weeks; for Mean change from baseline in 6-minute walk distance: mean ± SD
# Experimental: Two 12-week, randomized, double-blind, placebo-controlled, multicenter studies were conducted in 393 patients with PAH (WHO Group 1). The two studies were identical in design except for the doses of ambrisentan and the geographic region of the investigational sites. ARIES-1 (Ambrisentan in Pulmonary Arterial Hypertension, Randomized, Double-Blind, Placebo-Controlled, Multicenter, Efficacy Studies) compared once-daily doses of 5 mg and 10 mg ambrisentan to placebo, while ARIES-2 compared once-daily doses of 2.5 mg and 5 mg ambrisentan to placebo. In both studies, ambrisentan or placebo was added to current therapy, which could have included a combination of anticoagulants, diuretics, calcium channel blockers, or digoxin, but not epoprostenol, treprostinil, iloprost, bosentan, or sildenafil. The primary study endpoint was 6-minute walk distance. In addition, clinical worsening, WHO functional class, dyspnea, and SF-36® Health Survey were assessed.
# Patients had idiopathic or heritable PAH (64%) or PAH associated with connective tissue diseases (32%), HIV infection (3%), or anorexigen use (1%). There were no patients with PAH associated with congenital heart disease.
# Patients had WHO functional class I (2%), II (38%), III (55%), or IV (5%) symptoms at baseline. The mean age of patients was 50 years, 79% of patients were female, and 77% were Caucasian.
# Clinical Worsening: Time to clinical worsening of PAH was defined as the first occurrence of death, lung transplantation, hospitalization for PAH, atrial septostomy, study withdrawal due to the addition of other PAH therapeutic agents or study withdrawal due to early escape. Early escape was defined as meeting two or more of the following criteria: a 20% decrease in the 6-minute walk distance; an increase in WHO functional class; worsening right ventricular failure; rapidly progressing cardiogenic, hepatic, or renal failure; or refractory systolic hypotension.
# [3] = system: patients with IPF, with or without pulmonary hypertension (WHO Group 3); assay: Randomized controlled study in idiopathic pulmonary fibrosis; format: in vivo
# [4] = all clinical trials combined; cited from earlier work
# [5] = molecular target: T1, multidrug resistance protein 2 (MRP2) (Homo sapiens, UniProt Q92887); assay: Inhibition of hepatic transporter MRP2, transfected Sf9 cells; format: cell-based
# T1 construct: expressed in transfected cells; host or cells: Spodoptera frugiperda (Sf9) ovarian cells
# T1 sequence (Q92887 whole entry): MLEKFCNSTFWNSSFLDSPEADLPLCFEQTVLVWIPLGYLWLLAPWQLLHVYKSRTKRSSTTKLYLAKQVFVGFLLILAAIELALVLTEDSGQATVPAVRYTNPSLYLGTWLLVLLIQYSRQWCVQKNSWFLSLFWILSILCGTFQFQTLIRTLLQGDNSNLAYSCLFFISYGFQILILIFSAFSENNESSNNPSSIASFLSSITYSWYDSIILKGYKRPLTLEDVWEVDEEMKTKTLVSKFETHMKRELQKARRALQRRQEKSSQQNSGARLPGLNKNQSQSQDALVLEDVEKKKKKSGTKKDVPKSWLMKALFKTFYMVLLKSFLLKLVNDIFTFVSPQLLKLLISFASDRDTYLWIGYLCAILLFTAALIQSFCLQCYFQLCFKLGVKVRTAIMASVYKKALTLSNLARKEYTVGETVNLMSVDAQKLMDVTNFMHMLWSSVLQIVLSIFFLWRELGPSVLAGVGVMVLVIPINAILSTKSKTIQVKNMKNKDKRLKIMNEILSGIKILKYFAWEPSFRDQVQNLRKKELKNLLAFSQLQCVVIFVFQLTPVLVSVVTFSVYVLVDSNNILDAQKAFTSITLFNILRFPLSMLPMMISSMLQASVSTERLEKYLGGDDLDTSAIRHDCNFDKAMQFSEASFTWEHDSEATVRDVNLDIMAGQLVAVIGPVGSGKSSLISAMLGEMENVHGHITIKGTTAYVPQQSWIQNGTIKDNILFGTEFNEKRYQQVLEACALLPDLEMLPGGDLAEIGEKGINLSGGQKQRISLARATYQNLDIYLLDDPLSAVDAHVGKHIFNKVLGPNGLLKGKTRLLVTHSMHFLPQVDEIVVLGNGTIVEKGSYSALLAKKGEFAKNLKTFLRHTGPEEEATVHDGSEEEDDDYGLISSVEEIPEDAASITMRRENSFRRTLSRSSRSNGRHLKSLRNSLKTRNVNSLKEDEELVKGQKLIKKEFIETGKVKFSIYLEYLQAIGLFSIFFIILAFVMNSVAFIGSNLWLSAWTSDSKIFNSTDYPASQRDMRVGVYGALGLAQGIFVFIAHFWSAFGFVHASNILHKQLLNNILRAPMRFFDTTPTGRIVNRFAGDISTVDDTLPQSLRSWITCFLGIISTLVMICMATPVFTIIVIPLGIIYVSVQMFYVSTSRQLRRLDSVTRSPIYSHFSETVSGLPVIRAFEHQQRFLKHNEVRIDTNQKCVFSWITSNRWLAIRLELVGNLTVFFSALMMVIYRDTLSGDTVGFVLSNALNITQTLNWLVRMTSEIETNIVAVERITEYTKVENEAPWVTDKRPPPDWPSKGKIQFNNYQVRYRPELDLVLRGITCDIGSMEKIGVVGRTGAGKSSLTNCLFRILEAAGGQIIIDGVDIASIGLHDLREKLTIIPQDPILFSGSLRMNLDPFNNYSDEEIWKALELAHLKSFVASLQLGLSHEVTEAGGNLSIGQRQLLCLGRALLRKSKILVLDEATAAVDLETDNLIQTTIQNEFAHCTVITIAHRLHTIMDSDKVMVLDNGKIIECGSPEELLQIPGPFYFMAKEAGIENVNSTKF
# Experimental: (§1) Inhibition constants (IC50) were measured for human bile salt export pump (BSEP), sodium taurocholate cotransporting polypeptide (NTCP), multidrug resistance protein 2 (MRP2), P-glycoprotein (Pgp), breast cancer resistance protein (BCRP), organic anion-transporting polypeptide 1B1 (OATP1B1), and OATP1B3 in transfected cell-lines. Known inhibitors were used as positive controls.
# P-glycoprotein (Pgp) = molecular target: T2, P-glycoprotein (Pgp) (Homo sapiens, UniProt P08183); assay: Inhibition of Pgp, transfected MDCKII cells; format: cell-based; settings: human, transfected MDCKII cells
# T2 construct: expressed in transfected cells; host or cells: Madin-Darby canine kidney strain II (MDCKII)
# T2 sequence (P08183 whole entry): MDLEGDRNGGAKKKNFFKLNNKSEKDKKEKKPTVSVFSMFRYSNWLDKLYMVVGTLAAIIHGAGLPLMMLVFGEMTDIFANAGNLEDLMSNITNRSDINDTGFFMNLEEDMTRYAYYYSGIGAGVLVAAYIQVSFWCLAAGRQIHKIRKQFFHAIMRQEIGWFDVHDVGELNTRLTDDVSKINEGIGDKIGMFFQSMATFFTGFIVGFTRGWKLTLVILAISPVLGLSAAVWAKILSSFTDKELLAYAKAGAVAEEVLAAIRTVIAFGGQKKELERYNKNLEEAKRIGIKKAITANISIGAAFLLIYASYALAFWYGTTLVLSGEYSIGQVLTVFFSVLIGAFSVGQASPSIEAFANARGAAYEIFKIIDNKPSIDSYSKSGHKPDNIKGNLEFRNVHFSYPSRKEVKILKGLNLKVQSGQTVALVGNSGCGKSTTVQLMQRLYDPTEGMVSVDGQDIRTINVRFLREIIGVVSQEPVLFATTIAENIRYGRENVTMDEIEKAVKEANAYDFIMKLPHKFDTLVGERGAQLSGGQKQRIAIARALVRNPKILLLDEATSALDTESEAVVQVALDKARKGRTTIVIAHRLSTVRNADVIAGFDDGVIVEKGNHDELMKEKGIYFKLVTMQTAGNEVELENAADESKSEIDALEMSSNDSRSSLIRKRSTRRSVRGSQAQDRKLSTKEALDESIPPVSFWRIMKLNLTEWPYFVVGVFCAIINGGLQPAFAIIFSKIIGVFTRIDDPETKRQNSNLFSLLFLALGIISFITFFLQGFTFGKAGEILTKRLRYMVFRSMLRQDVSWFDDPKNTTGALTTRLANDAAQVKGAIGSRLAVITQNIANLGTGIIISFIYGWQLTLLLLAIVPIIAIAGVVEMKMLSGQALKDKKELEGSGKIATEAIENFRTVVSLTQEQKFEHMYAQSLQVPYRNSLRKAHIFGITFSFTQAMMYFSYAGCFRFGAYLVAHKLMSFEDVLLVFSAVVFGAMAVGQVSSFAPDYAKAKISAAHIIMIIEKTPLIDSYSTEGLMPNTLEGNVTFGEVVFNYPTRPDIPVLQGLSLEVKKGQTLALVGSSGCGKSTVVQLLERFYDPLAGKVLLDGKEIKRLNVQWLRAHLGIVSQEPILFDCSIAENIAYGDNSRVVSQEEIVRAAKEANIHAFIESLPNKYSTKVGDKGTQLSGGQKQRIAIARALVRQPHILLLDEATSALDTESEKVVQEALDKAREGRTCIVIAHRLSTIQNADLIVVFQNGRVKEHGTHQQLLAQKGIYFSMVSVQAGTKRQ
# Experimental: as §1
# [6] = molecular target: T3, breast cancer resistance protein (BCRP) (Homo sapiens, UniProt Q9UNQ0); assay: Inhibition of BCRP, transfected MDCKII cells; format: cell-based; settings: human, transfected MDCKII cells
# T3 construct: expressed in transfected cells; host or cells: MDCKII
# T3 sequence (Q9UNQ0 1-655): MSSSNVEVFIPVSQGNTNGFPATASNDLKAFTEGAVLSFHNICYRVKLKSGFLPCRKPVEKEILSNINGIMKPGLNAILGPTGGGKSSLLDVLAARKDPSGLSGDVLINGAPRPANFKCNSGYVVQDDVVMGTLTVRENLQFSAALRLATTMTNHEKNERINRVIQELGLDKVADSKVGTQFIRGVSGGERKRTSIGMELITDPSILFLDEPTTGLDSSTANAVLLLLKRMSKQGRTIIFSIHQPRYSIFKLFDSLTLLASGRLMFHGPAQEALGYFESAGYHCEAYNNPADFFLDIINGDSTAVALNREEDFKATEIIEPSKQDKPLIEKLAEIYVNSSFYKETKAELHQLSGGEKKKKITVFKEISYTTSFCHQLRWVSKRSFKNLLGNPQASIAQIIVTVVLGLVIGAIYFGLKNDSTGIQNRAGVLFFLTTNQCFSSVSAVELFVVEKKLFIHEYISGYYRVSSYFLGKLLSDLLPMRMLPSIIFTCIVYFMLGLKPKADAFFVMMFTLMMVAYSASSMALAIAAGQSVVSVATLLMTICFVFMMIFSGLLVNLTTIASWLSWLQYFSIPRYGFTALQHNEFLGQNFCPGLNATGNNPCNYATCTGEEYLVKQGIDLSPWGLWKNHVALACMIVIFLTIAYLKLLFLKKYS
# Experimental: as §1
# [7] = >3 × ULN and total bilirubin > 2 × ULN, N = 707
# [8] = Total > 3 × ULN, all subjects N = 707
# [9] = ARIES-1, ambrisentan N = 134, 12-week treatment, intention-to-treat
smiles,measurement,setting,value
"COC(c1ccccc1)(c1ccccc1)[C@H](Oc1nc(C)cc(C)n1)C(=O)O [Ambrisentan, (25)-2-[(4,6-dimethylpyrimidin-2-yl)oxy]-3-methoxy-3,3-diphenylpropanoic acid]","ALT/AST elevations, patient number","[1]; >3 to ≦5 × ULN, N = 707",25
same,"ALT/AST elevations, patients (%)","[1]; >3 to ≦5 × ULN, N = 707",(3.5) %
same,"ALT/AST elevations, patient number",[1]; [7],2
same,"ALT/AST elevations, patients (%)",[1]; [7],(0.3) %
same,"ALT/AST elevations, patients (%)","[1]; >3 × ULN and total bilirubin > 2 × ULN, N = 707, listed as ambrisentan",0.3%
same,"ALT/AST elevations, patient number","[1]; >5 to ≦8 × ULN, N = 707",1
same,"ALT/AST elevations, patients (%)","[1]; >5 to ≦8 × ULN, N = 707",(0.1) %
same,"ALT/AST elevations, patient number","[1]; >8 × ULN, N = 707",9
same,"ALT/AST elevations, patients (%)","[1]; >8 × ULN, N = 707",(1.3) %
same,"ALT/AST elevations, patient number",[1]; [8],35
same,"ALT/AST elevations, patients (%)",[1]; [8],(5.0) %
same,Mean change from baseline in 6-minute walk distance,"[2]; ARIES-1, 5 mg once daily (N = 67)",23 ± 83 meters
same,Placebo-adjusted mean change from baseline in 6-minute walk distance,"[2]; ARIES-1, 5 mg",31 meters
same,Placebo-adjusted median change from baseline in 6-minute walk distance,"[2]; ARIES-1, 5 mg",27 meters
same,Mean change from baseline in 6-minute walk distance,"[2]; ARIES-1, 10 mg once daily (N = 67)",44 ± 63 meters
same,Placebo-adjusted mean change from baseline in 6-minute walk distance,"[2]; ARIES-1, 10 mg",51 meters
same,Placebo-adjusted median change from baseline in 6-minute walk distance,"[2]; ARIES-1, 10 mg",39 meters
same,"Clinical worsening, %",[2]; [9],3%
same,"Clinical worsening, no.",[2]; [9],4
same,"Time to clinical worsening, hazard ratio","[2]; ARIES-1, versus placebo",0.28
same,patients who died,"[3]; ambrisentan n=329, placebo 4%",8%
same,patients with a respiratory hospitalization,"[3]; ambrisentan n=329, placebo 6%",13%
same,patients with a decrease in FVC/DLCO,"[3]; ambrisentan n=329, placebo 12%",17%
same,risk of disease progression or death versus placebo,[3]; study terminated after 34 weeks,greater risk of disease progression or death
same,1-year risk of significant aminotransferase abnormalities,[4],< 3%
COc1ccccc1Oc1c(NS(=O)(=O)c2ccc(C(C)(C)C)cc2)nc(-c2ncccn2)nc1OCCO [Bosentan],IC50,[5],> 100 µM
same,IC50,P-glycoprotein (Pgp),> 100 µM
same,IC50,[6],> 100 µM
